We go through ten compounds from patent US10815276B2, “Cell penetrating peptides and methods of making and using thereof” (Entrada Therapeutics, Inc., priority 2014, dated 2020).

Starred links: 1 amine or outer side, 2 acyl side, 3 side chain; linkers in the order of their positions; H or OH if unused. Positions of bridges follow the written chain, without caps; N, C: chain ends. Non-standard residues stand in square brackets, D forms with d. Residues, ends and D or L forms follow the SMILES beside them. Trimesoyl = O=C(c1cc(C(=O)[*:2])cc(C(=O)[*:3])c1)[*:1]; Phe(4-F) = N[C@@H](Cc1ccc(F)cc1)C(=O)O; 2Nal = N[C@@H](Cc1ccc2ccccc2c1)C(=O)O; dPhe(2-F) = N[C@H](Cc1ccccc1F)C(=O)O; Pip = O=C(O)[C@@H]1CCCCN1; Dap = NC[C@H](N)C(=O)O; Sar = CNCC(=O)O

The experiment has as its target T1, Pin1 (Homo sapiens, UniProt Q13526, S16A/Y23A).
T1 construct: The full-length human S16A/Y23A mutant Pin1 was expressed and purified from E. coli; made in house
As to the kind of experiment: Pin1 binding by FA (FITC-labeled peptides). Conditions: for Kd: FITC-labeled peptide, FA, read-out: KD.

T1 sequence (Q13526 whole entry S16A/Y23A): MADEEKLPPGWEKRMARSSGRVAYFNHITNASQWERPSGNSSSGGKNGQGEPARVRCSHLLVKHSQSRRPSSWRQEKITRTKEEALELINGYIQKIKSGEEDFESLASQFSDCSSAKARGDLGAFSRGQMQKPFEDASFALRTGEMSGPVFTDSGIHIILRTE

For orientation: Kd means the equilibrium constant for the complex coming apart. For `C[C@@H]1NC(=O)[C@H](CCCNC(=N)N)NC(=O)[C@H](Cc2ccc3ccccc3c2)NC(=O)[C@@H]2CCCCN2C(=O)[C@@H]([C@H](C)O)NC(=O)[C@H](Cc2ccccc2)NC(=O)[C@@H](Cc2ccccc2)NC(=O)c2cc3cc(c2)C(=O)NC[C@H](NC(=O)[C@@H](Cc2ccccc2)NC1=O)C(=O)N[C@@H](Cc1ccccc1)C(=O)N[C@@H](Cc1ccc2ccccc2c1)C(=O)N[C@@H](CCCNC(=N)N)C(=O)N[C@@H](CCCNC(=N)N)C(=O)N[C@@H](CCCNC(=N)N)C(=O)N[C@@H](CCCNC(=N)N)C(=O)N[C@H](C(=O)N[C@@H](CCCCN)C(N)=O)CNC3=O` [Peptide 28, bicyclo[Tm-(D-Phe-Phe-D-Thr-Pip-Nal-Arg-Ala-D-Phe)-Dap-(Phe-Nal-Arg-Arg-Arg-Arg-Dap)]-Lys] ([dF]F[dT][Pip][2Nal]RA[dF][Dap]F[2Nal]RRRR[Dap]K-NH2; linker N-9-16 via Trimesoyl; C-terminus assumed), the Kd was 1260 ± 280 nM.

As for `C[C@H]1NC(=O)[C@H](CC(=O)O)NC(=O)[C@H](CCCNC(=N)N)NC(=O)[C@H](Cc2ccc3ccccc3c2)NC(=O)[C@@H]2CCCCN2C(=O)[C@@H](CC(=O)O)NC(=O)CN(C)C(=O)[C@@H]2CCCN2C(=O)c2cc3cc(c2)C(=O)NC[C@H](NC1=O)C(=O)N[C@@H](Cc1ccccc1)C(=O)N[C@@H](Cc1ccc2ccccc2c1)C(=O)N[C@@H](CCCNC(=N)N)C(=O)N[C@@H](CCCNC(=N)N)C(=O)N[C@@H](CCCNC(=N)N)C(=O)N[C@@H](CCCNC(=N)N)C(=O)N[C@H](C(=O)N[C@@H](CCCCN)C(N)=O)CNC3=O` [Peptide 20, bicyclo[Tm-(Pro-Sar-D-Asp-Pip-Nal-Arg-Asp-D-Ala)-Dap-(Phe-Nal-Arg-Arg-Arg-Arg-Dap)]-Lys] (P[Sar][dD][Pip][2Nal]RD[dA][Dap]F[2Nal]RRRR[Dap]K-NH2; linker N-9-16 via Trimesoyl; C-terminus assumed), the Kd amounted to 3190 ± 500 nM. Same read-out and setting: as for `C[C@H](O)[C@H]1NC(=O)[C@H](Cc2ccc(F)cc2)NC(=O)[C@@H](Cc2ccccc2)NC(=O)c2cc3cc(c2)C(=O)NC[C@H](NC(=O)[C@H](CCCNC(=N)N)NC(=O)[C@H](Cc2ccc4ccccc4c2)NC(=O)[C@@H]2CCCCN2C1=O)C(=O)N[C@@H](Cc1ccccc1)C(=O)N[C@@H](Cc1ccc2ccccc2c1)C(=O)N[C@@H](CCCNC(=N)N)C(=O)N[C@@H](CCCNC(=N)N)C(=O)N[C@@H](CCCNC(=N)N)C(=O)N[C@@H](CCCNC(=N)N)C(=O)N[C@H](C(=O)N[C@@H](CCCCN)C(N)=O)CNC3=O` [Peptide 12, bicyclo[Tm-(D-Phe-Fpa-D-Thr-Pip-Nal-Arg)-Dap-(Phe-Nal-Arg-Arg-Arg-Arg-Dap)]-Lys] ([dF][Phe(4-F)][dT][Pip][2Nal]R[Dap]F[2Nal]RRRR[Dap]K-NH2; linker N-7-14 via Trimesoyl; C-terminus assumed), the figure is 2360 ± 480 nM. With `C[C@H](O)[C@H]1NC(=O)[C@H](Cc2ccc(F)cc2)NC(=O)[C@@H](Cc2ccccc2)NC(=O)c2cc3cc(c2)C(=O)NC[C@H](NC(=O)[C@@H](C)NC(=O)CNC(=O)[C@H](CCCNC(=N)N)NC(=O)[C@H](Cc2ccc4ccccc4c2)NC(=O)[C@@H]2CCCCN2C1=O)C(=O)N[C@@H](Cc1ccccc1)C(=O)N[C@@H](Cc1ccc2ccccc2c1)C(=O)N[C@@H](CCCNC(=N)N)C(=O)N[C@@H](CCCNC(=N)N)C(=O)N[C@@H](CCCNC(=N)N)C(=O)N[C@@H](CCCNC(=N)N)C(=O)N[C@H](C(=O)N[C@@H](CCCCN)C(N)=O)CNC3=O` [Peptide 26, bicyclo[Tm-(D-Phe-4-Fpa-D-Thr-Pip-Nal-Arg-Gly-D-Ala)-Dap-(Phe-Nal-Arg-Arg-Arg-Arg-Dap)]-Lys] ([dF][Phe(4-F)][dT][Pip][2Nal]RG[dA][Dap]F[2Nal]RRRR[Dap]K-NH2; linker N-9-16 via Trimesoyl; C-terminus assumed), the Kd was 740 ± 110 nM.

Take `C[C@@H]1NC(=O)[C@H](CCCNC(=N)N)NC(=O)[C@H](Cc2ccc3ccccc3c2)NC(=O)[C@@H]2CCCCN2C(=O)[C@@H]([C@H](C)O)NC(=O)[C@H](Cc2c[nH]cn2)NC(=O)[C@@H](Cc2ccccc2)NC(=O)c2cc3cc(c2)C(=O)NC[C@H](NC(=O)[C@@H](Cc2ccccc2)NC1=O)C(=O)N[C@@H](Cc1ccccc1)C(=O)N[C@@H](Cc1ccc2ccccc2c1)C(=O)N[C@@H](CCCNC(=N)N)C(=O)N[C@@H](CCCNC(=N)N)C(=O)N[C@@H](CCCNC(=N)N)C(=O)N[C@@H](CCCNC(=N)N)C(=O)N[C@H](C(=O)N[C@@H](CCCCN)C(N)=O)CNC3=O` [Peptide 31, bicyclo[Tm-(D-Phe-His-D-Thr-Pip-Nal-Arg-Ala-D-Phe)-Dap-(Phe-Nal-Arg-Arg-Arg-Arg-Dap)]-Lys] ([dF]H[dT][Pip][2Nal]RA[dF][Dap]F[2Nal]RRRR[Dap]K-NH2; linker N-9-16 via Trimesoyl; C-terminus assumed): the dissociation constant (Kd) came to 1680 ± 170 nM. Regarding `C[C@@H]1NC(=O)[C@H](CCCNC(=N)N)NC(=O)[C@H](Cc2ccc3ccccc3c2)NC(=O)[C@@H]2CCCCN2C(=O)[C@@H]([C@H](C)O)NC(=O)[C@H](Cc2ccc(F)cc2)NC(=O)[C@@H](Cc2ccccc2)NC(=O)c2cc3cc(c2)C(=O)NC[C@H](NC(=O)[C@@H](Cc2ccccc2)NC1=O)C(=O)N[C@@H](Cc1ccccc1)C(=O)N[C@@H](Cc1ccc2ccccc2c1)C(=O)N[C@@H](CCCNC(=N)N)C(=O)N[C@@H](CCCNC(=N)N)C(=O)N[C@@H](CCCNC(=N)N)C(=O)N[C@@H](CCCNC(=N)N)C(=O)N[C@H](C(=O)N[C@@H](CCCCN)C(N)=O)CNC3=O` [Peptide 27, bicyclo[Tm-(D-Phe-4-Fpa-D-Thr-Pip-Nal-Arg-Ala-D-Phe)-Dap-(Phe-Nal-Arg-Arg-Arg-Arg-Dap)]-Lys] ([dF][Phe(4-F)][dT][Pip][2Nal]RA[dF][Dap]F[2Nal]RRRR[Dap]K-NH2; linker N-9-16 via Trimesoyl; C-terminus assumed), the equilibrium dissociation constant (Kd) stood at 270 nM. The “Improvement of Pin1 binding by D-Phe for D-Ala vs parent peptide” value (peptide 22 vs 3, peptide 27 vs 4) is listed as ~2 fold. As for `CN1CC(=O)N[C@H](CC(=O)O)C(=O)N2CCCC[C@H]2C(=O)N[C@@H](Cc2ccc3ccccc3c2)C(=O)N[C@@H](CCCNC(=N)N)C(=O)N[C@@H](CCCNC(=N)N)C(=O)N[C@H](CCCNC(=N)N)C(=O)N[C@H]2CNC(=O)c3cc(cc(c3)C(=O)N3CCC[C@H]3C1=O)C(=O)NC[C@@H](C(=O)N[C@@H](CCCCN)C(N)=O)NC(=O)[C@H](CCCNC(=N)N)NC(=O)[C@H](CCCNC(=N)N)NC(=O)[C@H](CCCNC(=N)N)NC(=O)[C@H](CCCNC(=N)N)NC(=O)[C@H](Cc1ccc3ccccc3c1)NC(=O)[C@H](Cc1ccccc1)NC2=O` [Peptide 24, bicyclo[Tm-(Pro-Sar-D-Asp-Pip-Nal-Arg-Arg-D-Arg)-Dap-(Phe-Nal-Arg-Arg-Arg-Arg-Dap)]-Lys] (P[Sar][dD][Pip][2Nal]RR[dR][Dap]F[2Nal]RRRR[Dap]K-NH2; linker N-9-16 via Trimesoyl; C-terminus assumed), the Kd was determined as 1310 ± 100 nM. Take `C[C@@H]1NC(=O)[C@H](CCCNC(=N)N)NC(=O)[C@H](Cc2ccc3ccccc3c2)NC(=O)[C@@H]2CCCCN2C(=O)[C@@H]([C@H](C)O)NC(=O)[C@H](Cc2ccc(F)cc2)NC(=O)[C@@H](Cc2ccccc2F)NC(=O)c2cc3cc(c2)C(=O)NC[C@H](NC(=O)[C@@H](Cc2ccccc2)NC1=O)C(=O)N[C@@H](Cc1ccccc1)C(=O)N[C@@H](Cc1ccc2ccccc2c1)C(=O)N[C@@H](CCCNC(=N)N)C(=O)N[C@@H](CCCNC(=N)N)C(=O)N[C@@H](CCCNC(=N)N)C(=O)N[C@@H](CCCNC(=N)N)C(=O)N[C@H](C(=O)N[C@@H](CCCCN)C(N)=O)CNC3=O` [Peptide 35, bicyclo[Tm-(D-2-Fpa-Fpa-D-Thr-Pip-Nal-Arg-Ala-D-Phe)-Dap-(Phe-Nal-Arg-Arg-Arg-Arg-Dap)]-Lys] ([dPhe(2-F)][Phe(4-F)][dT][Pip][2Nal]RA[dF][Dap]F[2Nal]RRRR[Dap]K-NH2; linker N-9-16 via Trimesoyl; C-terminus assumed): the Kd was 590 ± 50 nM. The same measure, in the same setting: as for `C[C@@H]1NC(=O)[C@H](CCCNC(=N)N)NC(=O)[C@H](Cc2ccc3ccccc3c2)NC(=O)[C@@H]2CCCCN2C(=O)[C@@H](CC(=O)O)NC(=O)CN(C)C(=O)[C@@H]2CCCN2C(=O)c2cc3cc(c2)C(=O)NC[C@H](NC(=O)[C@@H](C)NC(=O)[C@@H](C)NC1=O)C(=O)N[C@@H](Cc1ccccc1)C(=O)N[C@@H](Cc1ccc2ccccc2c1)C(=O)N[C@@H](CCCNC(=N)N)C(=O)N[C@@H](CCCNC(=N)N)C(=O)N[C@@H](CCCNC(=N)N)C(=O)N[C@@H](CCCNC(=N)N)C(=O)N[C@H](C(=O)N[C@@H](CCCCN)C(N)=O)CNC3=O` [Peptide 16, bicyclo[Tm-(Pro-Sar-D-Asp-Pip-Nal-Arg-Ala-D-Ala-D-Ala)-Dap-(Phe-Nal-Arg-Arg-Arg-Arg-Dap)]-Lys] (P[Sar][dD][Pip][2Nal]RA[dA][dA][Dap]F[2Nal]RRRR[Dap]K-NH2; linker N-10-17 via Trimesoyl; C-terminus assumed), the figure is 2490 ± 570 nM. On the same count and under the same terms, then `CC(C)[C@@H]1NC(=O)[C@H](CCCNC(=N)N)NC(=O)[C@H](Cc2ccc3ccccc3c2)NC(=O)[C@@H]2CCCCN2C(=O)[C@@H](CC(=O)O)NC(=O)CN(C)C(=O)[C@@H]2CCCN2C(=O)c2cc3cc(c2)C(=O)NC[C@H](NC(=O)[C@@H](C)NC1=O)C(=O)N[C@@H](Cc1ccccc1)C(=O)N[C@@H](Cc1ccc2ccccc2c1)C(=O)N[C@@H](CCCNC(=N)N)C(=O)N[C@@H](CCCNC(=N)N)C(=O)N[C@@H](CCCNC(=N)N)C(=O)N[C@@H](CCCNC(=N)N)C(=O)N[C@H](C(=O)N[C@@H](CCCCN)C(N)=O)CNC3=O` [Peptide 18, bicyclo[Tm-(Pro-Sar-D-Asp-Pip-Nal-Arg-Val-D-Ala)-Dap-(Phe-Nal-Arg-Arg-Arg-Arg-Dap)]-Lys] (P[Sar][dD][Pip][2Nal]RV[dA][Dap]F[2Nal]RRRR[Dap]K-NH2; linker N-9-16 via Trimesoyl; C-terminus assumed), with 1750 ± 240 nM.
